Assay results from US20220226269A1, “METHODS AND COMPOSITIONS FOR MODULATION OF AN INTERSPECIES GUT BACTERIAL PATHWAY FOR LEVODOPA METABOLISM” (President and Fellows of Harvard College, priority 2019, published 2022).
In brackets after ≈: the same amount, converted by molar mass. Several values for one entry are separate records, joined by “and”; a condition that tells them apart may be missing. Equal values may be shown once. Entries after “also recorded” stand apart in the source; their conditions may differ.

How the values were obtained:
E. faecalis TyrDC [1] = molecular target: T1, E. faecalis TyrDC (Enterococcus faecalis, UniProt P0DTQ4); test: Michaelis-Menten kinetics of E. faecalis TyrDC; conditions: for Vmax / kcat: substrate of TyrDC, best-fit ± standard error, n=3
T1 sequence (P0DTQ4 1-620): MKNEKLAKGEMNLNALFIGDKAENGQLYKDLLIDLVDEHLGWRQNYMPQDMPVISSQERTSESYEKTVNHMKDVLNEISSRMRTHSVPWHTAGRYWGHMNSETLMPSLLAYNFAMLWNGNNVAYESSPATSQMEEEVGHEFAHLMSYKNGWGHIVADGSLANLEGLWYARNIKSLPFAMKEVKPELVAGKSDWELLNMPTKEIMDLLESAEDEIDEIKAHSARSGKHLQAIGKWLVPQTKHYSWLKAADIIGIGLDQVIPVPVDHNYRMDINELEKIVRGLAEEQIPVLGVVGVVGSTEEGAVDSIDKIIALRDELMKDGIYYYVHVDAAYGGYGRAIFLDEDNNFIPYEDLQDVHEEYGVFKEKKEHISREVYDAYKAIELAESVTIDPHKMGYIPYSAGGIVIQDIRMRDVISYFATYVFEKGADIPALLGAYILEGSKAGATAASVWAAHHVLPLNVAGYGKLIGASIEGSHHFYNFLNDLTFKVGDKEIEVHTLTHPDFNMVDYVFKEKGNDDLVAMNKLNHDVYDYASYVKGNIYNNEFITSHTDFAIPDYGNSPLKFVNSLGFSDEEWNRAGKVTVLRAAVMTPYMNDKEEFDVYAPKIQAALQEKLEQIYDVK
Description: (§1) The enzyme reaction was then initiated by dissolving the preincubated enzyme-PLP mix 1:10 with substrate dissolved in 0.2 M sodium acetate buffer, pH 5.5. […] Aliquots of the enzyme reaction were quenched by diluting 10-fold into ice cold methanol at 20, 40, and 60 seconds after initiation. The quenched reaction was centrifuged to pellet precipitates and 5 μL of the supernatant was analyzed by LC-MS/MS using Method B described above. Rates were calculated as the substrate produced from 20 to 60 seconds and were fit to a standard Michaelis-Menten kinetics curve in Graphpad prism (version 7). All experiments were done in triplicate and were repeated at least twice. Reactions were performed at room temperature.

[2] = cited from earlier work
E. lenta A2 cell lysates = test: E. lenta A2 lysate assays with tungstate; format: biochemical, Eggerthella lenta; conditions: 500 μM dopamine, 12 hours, room temperature
Description: E. lenta A2 was grown either without or with 500 μM dopamine in BHI medium containing 1% (w/v) arginine and 10 mM formate. Cultures were spun down at OD600=0.500 and cell pellets were washed twice with anaerobic, sterile PBS to remove dopamine and any m-tyramine that had accumulated in the culture. Pellets were lysed anaerobically in 50 mM Tris pH 8 followed by addition of 500 μM dopamine (DA) to lysates. Lysates were left at room temperature for 12 hours and were analyzed for m-tyramine production by LC-MS/MS. Peak heights show the relative intensity of each mass and all chromatograms are shown on the same scale.
10 mL turbid 48-hour starter cultures of E. lenta A2 in BHI medium were diluted 1:100 into 20 mL BHI medium containing 1% arginine and 10 mM formate with or without 500 μM dopamine. Cells were pelleted by centrifugation when cultures reached OD600=0.500. Cell pellets were washed twice with PBS and were then re-suspended in 800 μL 50 mM Tris pH 8 containing 4 mg/mL […] protease inhibitor cocktail, followed by anaerobic sonication to lyse the cells. Dopamine was added to crude lysates at a final concentration of 500 μM and the reactions were left for 12 hours at room temperature under anaerobic conditions. […] Supernatant were analyzed by LC-MS/MS to measure dopamine and m-tyramine production using Method A described above. […]

E. lenta A2 [3] = test: Anaerobic growth of E. lenta A2 in the presence of tungstate; format: cell-based, Eggerthella lenta; conditions: BHI medium, varying concentrations of tungstate
E. lenta A2 [4] = test: Effect of tungstate on dopamine dehydroxylation in cultures of E. lenta A2; format: cell-based, Eggerthella lenta; conditions: 48 hours, 0.5 mM dopamine
[5] = Solubility limit noted in the inhibition assays; format: physicochemical
E. faecalis MMH594 cells = test: L-dopa decarboxylation in anaerobic E. faecalis cultures with inhibitor
H. sapiens AADC = molecular target: T2, H. sapiens AADC (Homo sapiens, UniProt P20711); test: Inhibition of L-dopa decarboxylation by purified AADC (LC-MS/MS)
T2 sequence (P20711 1-480): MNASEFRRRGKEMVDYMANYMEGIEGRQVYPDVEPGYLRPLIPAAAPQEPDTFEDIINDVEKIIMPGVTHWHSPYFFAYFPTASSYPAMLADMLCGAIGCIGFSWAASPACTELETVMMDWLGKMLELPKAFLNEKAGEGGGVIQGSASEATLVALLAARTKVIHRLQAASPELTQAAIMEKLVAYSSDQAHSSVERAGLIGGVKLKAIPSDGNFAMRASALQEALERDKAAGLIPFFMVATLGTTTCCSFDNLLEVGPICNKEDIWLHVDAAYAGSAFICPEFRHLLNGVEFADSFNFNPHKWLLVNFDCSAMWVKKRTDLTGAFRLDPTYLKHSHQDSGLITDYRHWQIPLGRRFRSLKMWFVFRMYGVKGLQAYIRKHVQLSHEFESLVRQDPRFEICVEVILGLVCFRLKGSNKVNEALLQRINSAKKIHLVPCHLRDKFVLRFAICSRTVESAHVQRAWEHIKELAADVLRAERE

E. faecalis TyrDC [6] = molecular target: T1, E. faecalis TyrDC; test: Inhibition of L-dopa decarboxylation by purified TyrDC (LC-MS/MS); conditions: for preferential inhibition, AADC vs TyrDC: FIG. 4 panels B and E, in vitro; for IC50: IC50, L-dopa decarboxylation by TyrDC, purified E. faecalis TyrDC, 500 μM L-dopa, pH 5.5, best-fit ± standard error, n=3
human fecal microbiota = test system: human fecal microbiota
Description: Fecal slurries from neurologically healthy human donors or Parkinson's patients were prepared as described in the ‘enrichment culturing’ section above. These slurries were diluted to a final volume of 300 μL in 20% glycerol and then aliquoted into individual tubes, flash-frozen in liquid nitrogen and stored at −80° C., allowing for experiments to be repeated with the same fecal sample multiple times without freeze-thawing.

[7] = test system: co-cultures of E. faecalis and E. lenta; test: L-dopa metabolism by co-cultures of E. faecalis and E. lenta with AFMT; conditions: 125 μM AFMT, 1 mM d3-phenyl-L-dopa, 48 hours
Description: E. faecalis MMH594 WT or tyrDC mutant or E. lenta A2 or E. lenta DSM2243 were grown anaerobically for 48 hours from single colonies in BHI medium at 37° C. These starter cultures were normalized to an OD600=0.1 by dilution into fresh BHI medium. […] Cultures were grown for 48 hours at 37° C. and harvested by centrifugation.

TyrDC = molecular target: T3, TyrDC (Enterococcus faecalis, UniProt P0DTQ4); test: Identification of a PLP-inhibitor adduct upon incubation of enzymes with AFMT; format: biochemical; conditions: TyrDC or AADC incubated with AFMT for 1 hour
T3 sequence (P0DTQ4 1-620): T1 sequence (P0DTQ4 1-620)
Description: The same buffers as described above were used for each enzyme. 10 μM AADC or TyrDC was incubated with 200 μM PLP and 50 μM AFMT for one hour at room temperature. The reactions were quenched by boiling at 95° C. for 15 minutes. This mix was diluted 1:20 in LC-MS grade methanol and spun down to pellet precipitates. The supernatant was analyzed by LC-MS using Method E described above. The predicted adduct was identified based on the work described in.

[8] = Pharmacokinetic experiment in gnotobiotic mice colonized with E. faecalis MMH594; format: in vivo; conditions: L-dopa+carbidopa+AFMT
HeLa cells = test: MTS/MTT assay for HeLa cell viability in the presence of AFMT; format: cell-based; conditions: two days treatment
Description: HeLa cells were seeded in 100 μL growth medium [(DMEM medium supplemented with 10% FBS (2 mL) and 1× Antibiotic-Antimycotic (100× stock, Invitrogen))] and incubated at 37° C. in 5% CO2 incubator for 1 day. Wells containing growth medium only were used as background controls. Cells were treated with various concentrations of AFMT in quadruplicate. Two days post treatment, 20 μL of CellTiter 96® AQueous One Solution Reagent (Promega) was added to each well. The plates were incubated at 37° C. in 5% CO2 incubator for 2 hours followed by absorbance measurement at 490 nm. To calculate relative cell viability, the readings for each compound concentration were subtracted from the background controls and normalized to vehicle controls.
HeLa cells were seeded into 96-well plates at a density of 1×10^5 cells per well in 100 μL of growth medium [(DMEM medium supplemented with 10% FBS (2 mL) and 1× Antibiotic-Antimycotic (100× stock, Invitrogen))] and incubated at 37° C. in a 5% CO2 incubator for 1 day. Wells containing growth medium only were used as background controls. Cells were treated with various concentrations of AFMT in quadruplicate. […] To calculate relative cell viability, the readings for each compound concentration were subtracted from the background controls and normalized to vehicle controls

[9] = substrate: N[C@@H](Cc1ccc(O)cc1)C(=O)O; test: purified protein, by the assay type; conditions: other: substrate of TyrDC; best-fit ± standard error, n=3; pH 5.5
Description: as §1

[10] = substrate: N[C@@H](Cc1ccc(O)c(O)c1)C(=O)O; test: purified protein, by the assay type; conditions: other: substrate of TyrDC, pH 5.5
[11] = read-out: inhibition of AADC at solubility limit

## N[C@@H](Cc1ccc(O)cc1)C(=O)O [Tyrosine, L-tyrosine]
E. faecalis TyrDC [1]; TyrDC
  fold higher catalytic efficiency compared to L-dopa: 5 fold
E. faecalis TyrDC [1]
  Vmax: 6.363 ± 0.102 µM/s
  kcat: 63.63 ± 1.02 s⁻¹

## N[C@@H](Cc1ccc(O)c(O)c1)C(=O)O [L-dopa]
E. faecalis TyrDC [1]
  Vmax: 5.553 ± 0.165 ^ μM/s
  kcat: 55.53 ± 2.98 ^ 1/s
[2]; extensive pre-systemic metabolism in the gut
  L-dopa reaching the brain: 1-5%

## [Na+].[Na+].[O]=[W](=[O])([O-])[O-] [tungstate, Sodium tungstate]
E. lenta A2 cell lysates
  dopamine dehydroxylation by E. lenta A2 cell lysates: had no effect; also recorded: no dose-dependent effect
E. lenta A2 [3]
  growth of E. lenta A2: without affecting growth; also recorded: no obvious dose-dependent growth defect
E. lenta A2 [4]
  dopamine dehydroxylation by E. lenta A2 cultures: inhibits

## C[C@@](Cc1ccc(O)c(O)c1)(NN)C(=O)O [carbidopa]
[5]; E. faecalis cultures, plasma or biological fluid
  solubility: 2000 µM (≈ 452 µg/mL)
E. faecalis MMH594 cells; Enterococcus faecalis, MMH594CELLS, read-out: inhibition of L-dopa decarboxylation by E. faecalis cultures, at solubility limit of 2 mM
  inhibition at 2000 µM: ~50%
E. faecalis MMH594 cells; at solubility limit of 2 mM
  inhibition of L-dopa decarboxylation by E. faecalis cultures: 50% inhibition at
H. sapiens AADC
  IC50: 0.21 µM
[2]; carbidopa administration, previous findings
  m-tyramine production in patients: does not impact
E. faecalis TyrDC [6]; E. faecalis TyrDC vs H. sapiens AADC
  fold less active toward TyrDC relative to AADC: 200 fold
E. faecalis TyrDC [6]
  preferential inhibition, AADC vs TyrDC: preferentially inhibits human amino acid decarboxylase (AADC) over TyrDC
  IC50: 52 µM
Human fecal microbiota; 2 mM carbidopa, 1 mM d3-phenyl-L-dopa, 72 hours
  kinetics of L-dopa degradation in stool samples: did not alter
Human fecal microbiota; 2 mM carbidopa, Parkinson's patients and neurologically healthy controls
  endpoint m-tyramine production in stool samples: did not alter

## N[C@@](CF)(Cc1ccc(O)cc1)C(=O)O [AFMT]
[5]; AADC inhibition assay mixture, AADC inhibition assay
  solubility: 650 µM (≈ 139 µg/mL)
E. faecalis MMH594 cells; AFMT vs carbidopa
  fold outperforming carbidopa in E. faecalis cultures: 1000 fold
E. faecalis MMH594 cells; Enterococcus faecalis, MMH594CELLS, read-out: EC50, L-dopa decarboxylation in E. faecalis cultures, E. faecalis MMH594 cells, 0.5 mM L-dopa, anaerobic
  EC50: 1.4 µM
[7]
  L-dopa decarboxylation by co-cultures of E. faecalis and E. lenta: reduced
H. sapiens AADC; [11]
  inhibition at 650 µM: ~20%
  inhibition at 700 µM: 20%
TyrDC
  covalent PLP adduct formation: formed a covalent PLP adduct only in the presence of TyrDC
[8]
  serum L-dopa relative to vehicle controls: higher
HeLa cells
  toxicity to eukaryotic cells: non-toxic
E. faecalis TyrDC [6]
  preferential inhibition, AADC vs TyrDC: preferentially inhibits TyrDC over AADC
  IC50: 4.7 µM and 4.71 µM
Human fecal microbiota; Parkinson's disease patients and neurologically healthy control subjects, 1 mM d3-phenyl-L-dopa, 72 hours
  L-dopa decarboxylation in gut microbiota samples: completely inhibited

B1: E. faecalis TyrDC (Enterococcus faecalis EnGen0310 = MMH594) (protein)
chain: T1 sequence (P0DTQ4 1-620)
[9]
  Km: 314.9 ± 15.5 µM
[10]; best-fit ± standard error, n=3
  Km: 1475 ± 79.28 ^ μM
[10]
  Km: 1.5 mM
